# Tests used:
# [1] = biological target: T1, High affinity nerve growth factor receptor (Homo sapiens, UniProt P04629); assay: Inhibition of TrkA (unknown origin)
# [2] = biological target: T1, High affinity nerve growth factor receptor; assay: Inhibition of TrkA (unknown origin) by cell-based assay
# [3] = biological target: T2, BDNF/NT-3 growth factors receptor (Homo sapiens, UniProt Q16620); assay: Inhibition of TrkB (unknown origin)
# [4] = biological target: T2, BDNF/NT-3 growth factors receptor; assay: Inhibition of TrkB (unknown origin) by cell-based assay
# [5] = Apparent permeability from apical side to basolateral side of MDCK cells; format: ADME, cell-based, Canis lupus familiaris; conditions: dog
# [6] = Apparent permeability from basolateral side to apical side of MDCK cells; format: ADME, cell-based, Canis lupus familiaris; conditions: dog
# T1 sequence (P04629 whole entry): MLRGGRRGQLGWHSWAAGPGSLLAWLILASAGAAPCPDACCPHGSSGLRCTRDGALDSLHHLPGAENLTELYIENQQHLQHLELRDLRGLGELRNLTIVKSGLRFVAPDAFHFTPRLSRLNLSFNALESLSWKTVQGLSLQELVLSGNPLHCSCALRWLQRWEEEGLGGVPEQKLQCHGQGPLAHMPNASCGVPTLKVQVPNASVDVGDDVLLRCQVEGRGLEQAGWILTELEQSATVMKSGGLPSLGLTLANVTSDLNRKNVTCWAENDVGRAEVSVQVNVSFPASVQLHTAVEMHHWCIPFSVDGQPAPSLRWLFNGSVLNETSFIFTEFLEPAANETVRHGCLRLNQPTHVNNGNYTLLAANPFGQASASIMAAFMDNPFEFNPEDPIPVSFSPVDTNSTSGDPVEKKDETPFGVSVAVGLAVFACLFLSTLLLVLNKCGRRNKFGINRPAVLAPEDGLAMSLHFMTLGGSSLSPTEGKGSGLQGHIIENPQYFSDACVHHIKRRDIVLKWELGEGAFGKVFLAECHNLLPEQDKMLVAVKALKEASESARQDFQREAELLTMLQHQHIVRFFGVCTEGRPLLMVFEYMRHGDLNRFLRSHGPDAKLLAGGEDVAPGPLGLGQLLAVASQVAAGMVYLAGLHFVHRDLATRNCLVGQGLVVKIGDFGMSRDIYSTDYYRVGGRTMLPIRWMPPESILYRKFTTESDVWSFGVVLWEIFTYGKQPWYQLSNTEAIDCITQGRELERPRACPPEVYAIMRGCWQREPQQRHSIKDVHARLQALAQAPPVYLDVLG
# T2 sequence (Q16620 whole entry): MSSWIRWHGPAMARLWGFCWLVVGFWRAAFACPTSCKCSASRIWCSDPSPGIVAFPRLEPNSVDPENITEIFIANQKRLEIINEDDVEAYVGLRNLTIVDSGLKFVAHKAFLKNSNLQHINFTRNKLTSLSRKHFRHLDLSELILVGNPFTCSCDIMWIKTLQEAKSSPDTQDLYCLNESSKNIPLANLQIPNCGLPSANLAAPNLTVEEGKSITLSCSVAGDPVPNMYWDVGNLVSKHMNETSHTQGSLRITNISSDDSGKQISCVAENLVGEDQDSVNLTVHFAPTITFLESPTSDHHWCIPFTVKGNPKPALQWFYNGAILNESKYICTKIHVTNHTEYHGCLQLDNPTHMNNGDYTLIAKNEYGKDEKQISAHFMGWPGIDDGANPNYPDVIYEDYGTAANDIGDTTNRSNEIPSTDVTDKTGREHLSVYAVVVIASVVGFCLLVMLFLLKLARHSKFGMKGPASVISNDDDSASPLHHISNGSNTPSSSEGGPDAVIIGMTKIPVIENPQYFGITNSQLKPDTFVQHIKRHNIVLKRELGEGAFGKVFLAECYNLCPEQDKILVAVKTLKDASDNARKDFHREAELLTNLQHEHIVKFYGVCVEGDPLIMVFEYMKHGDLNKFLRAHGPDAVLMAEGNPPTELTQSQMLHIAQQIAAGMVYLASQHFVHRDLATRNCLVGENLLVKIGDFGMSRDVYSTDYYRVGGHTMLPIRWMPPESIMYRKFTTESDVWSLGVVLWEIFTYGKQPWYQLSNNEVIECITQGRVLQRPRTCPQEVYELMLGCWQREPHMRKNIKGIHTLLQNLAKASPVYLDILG
structure (smiles),measurement,setting,value
CC(C)[C@H](CO)Nc1nc(Nc2ccc(C(=O)O)c(Cl)c2)c2ncn(C(C)C)c2n1 [PURVALANOL B],IC50,[1],51 nM
same,IC50,[2],1710 nM
same,IC50,[3],11 nM
same,IC50,[4],1300 nM
same,Papp A→B,[5],1.1 ×10⁻⁶ cm/s
same,Papp B→A,[6],< 5 ×10⁻⁶ cm/s

# From ChEMBL document CHEMBL3217685, “Quantitative affinity-based chemical proteomics of TrkA inhibitors” (Medchemcomm, 2012)
